Measurements taken from ChEMBL document CHEMBL1150795, “Sultam thiourea inhibition of West Nile virus” (Antimicrob Agents Chemother, 2007).
Calls of active or inactive are those of the source. The rule behind the calls is not given here.

How the values were obtained:
West Nile virus [1] = assay: Antiviral activity against West Nile virus in BHK cells assessed as reduction of viral replicon after 48 hrs by luciferase based reporter gene assay relative to control; format: functional
[2] = test system: Human immunodeficiency virus 1; assay: Antiviral activity against HIV1; format: functional, organism-based
Vero = assay: Cytotoxicity against african green monkey Vero cells at 23 uM after 48 hrs by MTS method; format: cell-based; conditions: chlorocebus sabaeus
West Nile virus [3] = assay: Antiviral activity against West Nile virus NY 1999 infected in african green monkey Vero cells assessed as reduction of viral E protein level by immunofluorescence method; format: functional, organism-based
[4] = Cytotoxicity against african green monkey Vero cells after 48 hrs by MTS method; format: cell-based; conditions: chlorocebus sabaeus
Prospect Hill virus = assay: Antiviral activity against Prospect Hill Hantavirus; format: functional, organism-based; conditions: Orthohantavirus prospectense
[5] = test system: Human immunodeficiency virus 1; assay: Antiviral activity against HIV1 in 293 cells assessed as reduction of viral replicon after 48 hrs by luciferase based reporter gene assay relative to control; format: functional, organism-based; conditions: HEK293
West Nile virus [6] = assay: Antiviral activity against West Nile virus NY 1999 infected in african green monkey Vero cells assessed as reduction of virus yield after 5 days post infection at 23 uM relative to control; format: functional
West Nile virus [7] = assay: Antiviral activity against West Nile virus NY 1999 infected in african green monkey Vero cells assessed as reduction of virus yield after 5 days post infection at 2.3 uM relative to control; format: functional
West Nile virus [8] = assay: Antiviral activity against West Nile virus NY 1999 infected in african green monkey Vero cells assessed as reduction of virus yield administered 2 hrs postinfection; format: functional, organism-based
[9] = Cytotoxicity against african green monkey Vero cells by trypan blue exclusion assay; format: cell-based; conditions: chlorocebus sabaeus
Human adenovirus 5 = assay: Antiviral activity against human adenovirus 5; format: functional, organism-based
[10] = test system: Japanese encephalitis virus; assay: Antiviral activity against Japanese encephalitis virus SA14-2-8 infected in african green monkey Vero cells assessed as reduction of virus yield relative to control; format: functional, organism-based
[11] = Selectivity index, ratio of CC50 for african green monkey Vero cells to EC50 for West Nile virus NY 1999; format: toxicity, cell-based; conditions: read-out: Ratio CC50/EC50
West Nile virus [12] = assay: Antiviral activity against West Nile virus NY 1999 infected in african green monkey Vero cells assessed as reduction of viral RNA level by RT-PCR relative to control; format: functional
West Nile virus [13] = assay: Antiviral activity against West Nile virus NY 1999 infected in african green monkey Vero cells assessed as reduction of virus yield relative to control; format: functional, organism-based
West Nile virus [14] = assay: Antiviral activity against West Nile virus NY 1999 infected in african green monkey Vero cells assessed as reduction of viral E protein level by immunoblot method; format: functional, organism-based

Row | Structure (SMILES) | fold change (FC) (West Nile virus [1]) | Activity [2] | Activity (Vero) | Activity (West Nile virus [3]) | CC50 at 48 h [4] | Activity (Prospect Hill virus) | Activity [5] | fold change (FC) (West Nile virus [6]) | fold change (FC) (West Nile virus [7]) | Activity (West Nile virus [8]) | CC50 [9] | Activity (Human adenovirus 5) | EC50 [10] | selectivity ratio [11] | Activity (West Nile virus [12]) | EC50 (West Nile virus [13]) | Activity (West Nile virus [14])
1 | O=S1(=O)CS/C(=N\C(=S)N(c2ccccc2)c2ccccc2)N1c1ccccc1 | >20 | Active | Non-toxic | Active | > 70 µM | Active | inactive | 100 | 100 | Active | > 70 µM | Active | 7 µM | > 100 | >100 | 0.7 µM | Active
2 | CC(C)N(C(=S)/N=C1\SCS(=O)(=O)N1c1ccccc1)C(C)C |  |  |  |  | > 80 µM |  |  |  |  |  |  |  | 8 µM |  |  | 80 µM | 
3 | CC(C)N(C(=S)/N=C1\SC(C)S(=O)(=O)N1C)C(C)C (stereo unspecified) |  |  |  |  | 90 µM |  |  |  |  |  |  |  | 30 µM |  |  | 30 µM | 
4 | O=S1(=O)CS/C(=N\C(=S)N(Cc2ccccc2)Cc2ccccc2)N1c1ccccc1 |  |  |  |  | 65 µM |  |  |  |  |  |  |  | 65 µM |  |  | 22 µM | 
